Data set [1] deals with H1299 clone C3-1. Put plainly: Concentration response of cell survival, clone C3-1, Incucyte. In kind it is cell-based, human. The conditions noted are these: clone C3-1, 5 days continuous exposure. The procedure: Real time monitoring of cell growth was performed with the IncuCyte ZOOM live cell imaging system (Essen BioSciences, USA). Cells were seeded in 96 well plates (Corning, cat#353072) and treated on the next day. The resulting phase-contrast images were analysed using IncuCyte ZOOM 2018A software and results were expressed as percentage confluency of cells.
Supplementary Fig. 14 Treatment of the eIF4E-dTAG-degradation model with negative control dTAGV-1 compound. a Plot of concentration responsiveness versus cell survival for H1299 clone C3-1 following 120 hr exposure to different concentrations of dTAGv-1. Cell confluency (%) was calculated using Incucyte Zoom software and plotted as the mean ± SD from 3 biological replicates. b Immunoblot of […]
clone treated with 0.5 µM dTAGV-1 or the negative control dTAGV-1 compound for the indicated times. Vinculin was used as a loading control. The immunoblot shown is representative of 3 biological replicates. c Real-time cell confluency measurements of H1299 parental cells treated with 0.5 or 1 µM of dTAGV-1 or the negative control […]
2) treated with 0.5 or 1 µM of the negative control dTAGV-1 compound. Cells were monitored every 4 hr over a 6-day period. Cell confluency (%) was calculated using Incucyte Zoom software and shown as the mean ± SEM from 3 biological replicates.
(1 picture or pasted object on this page, not shown here)

The test system of data set [2] is eIF4E-dTAG (FKBP12^F36V-tagged eIF4E). Put plainly: Immunoblot of eIF4E-dTAG degradation in H1299 eIF4E-dTAG clones. It is filed as cell-based, human. The following applies: 6 h at ≈ 2–5x the IC50. The procedure:
Treatment of isolated clones with the heterobifunctional dTAG^V−1 molecule recruits E3 ligase VHL to degrade eIF4E-dTAG. […] Parental H1299 cells and the selected eIF4E-dTAG clones were treated with 0.5 and 1 µM dTAG^V−1 for 6, 8, or 16 h. Vinculin was used as a loading control (n = 3 biological replicates). c Real-time cell growth measurements of the selected eIF4E-dTAG clones treated with 0.5 or 1 µM dTAG^V−1. Cell confluency (%) was monitored every 4 h over 6 days using Incucyte Zoom. Significance was determined using a one-way ANOVA with Tukey multiple comparisons test comparing dTAG^V−1 treatment with the control in each cell line. […] Significant differences between control and treated samples were determined using MSstats. […]
After seeding overnight in 6 well plates (Corning, cat#353046), cells were treated with compounds for the indicated times and concentration, harvested and the cell pellet lysed on ice in cell lysis buffer (Cell Signaling, cat#9803), supplemented with 1x Halt^TM protease inhibitor cocktail (Fisher Scientific, cat#78429) and cOmplete^TM protease inhibitor cocktail (Sigma-Aldrich, cat#11836153001) for 1 hr. Protein was quantified using BCA protein kit (Fisher Scientific, cat#23225). […] Quantitative densitometry analysis of protein bands was performed using Image J v1.53 software.

The test system of data set [3] is Caco-2 monolayer. As to the kind of experiment: Caco-2 permeability assay. In kind it is in vitro ADME. As for the experimental part: Caco-2 permeability Assay
The permeability of Compound 4 was assessed using the CacoReady system.
Compound 4 and control compounds (propranolol, antipyrine, and vinblastine) were incubated at a final concentration of 10 µM in duplicate to either the apical (180 µL) of the monolayer to measure apical to basolateral transport (A > B) across the cell barrier or to the basolateral side (750 µL) to measure the basolateral to apical transport (B > A). For A > B spiking, test and control compounds were diluted from 10 mM DMSO stocks to 10 µM in HBSS buffer with 100 mM CaCl2·2H2O, 50 mM MgCl2·5H2O, and 0.5 mg/mL lucifer yellow made to volume with sterile water (lucifer yellow was used to determine the integrity of the Caco-2 monolayer). For B > A compound spiking, test and control compounds were prepared as for the A > B solutions without the addition of lucifer yellow. Test and control compounds were incubated for 1 h at +37 °C in a highly humidified atmosphere of 95% air and 5% CO2. […]
(Caco-2 cells form a polarised layer with tight junctions and transporters.)

In data set [4] the target is T1, full-length eIF4G:eIF4E (Homo sapiens, UniProt P06730).
T1 construct: endogenous in cells; host or cells: HeLa, SW620 or H1299 cells (lysates; intact H1299 cells in A13)
Put plainly: eIF4G:eIF4E binding, summary over cell line lysates. It is filed as biochemical. The procedure: This assay uses plates with carbon electrodes and electro-chemiluminescent labels (SULFO-TAGs) that are conjugated to detection antibodies. When an electric current is applied to the plate electrodes the SULFO-TAG labels will emit light that is measured to quantify analytes in the sample. […] For measuring exogenously expressed FLAG-tagged-eIF4E, 96-well Multiarray SECTOR plates with carbon electrodes (MSD, cat#L15XB) were coated with 25 ul of 4 µg/ml anti-FLAG M2 (Sigma-aldrich, cat#F1804, RRID:AB_262044) in PBS for 1 hr at RT with shaking. The plates were washed with 3 ×150 µl/well MSD wash buffer (cat#R61AA-1; 0.2% Tween-20 in PBS), then blocked with 150 µl/well block buffer (MSD, cat# R93AA) for 1 h. […] The incubated plates were washed 4x in 150 µl in MSD wash buffer and were re-blocked by the addition of 25 μl of blocking buffer containing a 1:500 dilution of the secondary antibody and incubated for 1 hr at RT with rotational shaking. […] Plates were then washed again 4x in 150 µl in MSD wash buffer and 25 μl of a 1:50 dilution of Goat anti-rabbit Sulfo-Tag (MSD, Cat# R32AB-1) in MSD blocking buffer was added and the plates incubated for 1 h at RT with rotational shaking. After a final wash step, 150 μl Read Buffer T4X (MSD, Cat# R92-TC2) was added and the plate read using the MSD QuickPlex SQ 120 plate reader.

Structures are written as SMILES. Where “and” joins values, the source holds several entries; their conditions need not be identical. Equal entries are not always repeated.

This is an account of results in PMC11868579 (Nature Communications, 2024).

One may read the IC50 as the concentration at which inhibition is half-maximal. Usually efflux ratio stands for the permeability from basolateral to apical divided by that in the opposite direction, in the common usage.

T1 sequence (P06730 2-217 limits assumed): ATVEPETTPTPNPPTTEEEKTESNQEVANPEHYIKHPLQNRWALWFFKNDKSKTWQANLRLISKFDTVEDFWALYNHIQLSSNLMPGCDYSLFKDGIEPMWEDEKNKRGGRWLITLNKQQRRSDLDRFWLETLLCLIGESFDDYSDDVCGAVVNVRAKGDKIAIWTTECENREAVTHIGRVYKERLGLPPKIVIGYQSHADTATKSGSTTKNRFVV

Regarding `CC[C@H](C(=O)N1CCCC[C@H]1C(=O)O[C@H](CCc1ccc(OC)c(OC)c1)c1ccccc1OCC(=O)NCCCCCCC(=O)N[C@H](C(=O)N1C[C@H](O)C[C@H]1C(=O)N[C@@H](C)c1ccc(-c2scnc2C)cc1)C(C)(C)C)c1cc(OC)c(OC)c(OC)c1` [dTAG^V-1], the IC50 in data set [1] was 205 nM and 206 nM. Further, in data set [2], the “loss of eIF4E-dTAG” value is reported as “near complete loss of eIF4E-dTAG”.
Take `CC[C@H](O[C@H](C)CO)c1ccc(-c2ccccc2F)cc1NCCO` [Compound 4]: the “permeability in Caco2 assay” value in data set [3] was “good permeability”. In addition, in data set [3] (10 µM, 1 h), the “Caco-2 permeability Papp (A-B)” value is 9 ×10⁻⁶ cm/s. In data set [3] (Caco2), the efflux ratio was determined as 1.5. Besides, the EC50 in data set [4] (read-out: EC50s, eIF4G:eIF4E electro-chemiluminescent binding assay, three different cell line lysates) lay in the range of 1400 to 2600 nM. Also, the IC50 in data set [4] (read-out: full-length eIF4G:eIF4E IC50, lysates and intact cell engagement assays) was in the range of 1000 to 2000 nM.
